# Values quoted from earlier work in publication PMC10816276 (International Journal of Molecular Sciences, 2024).
# Molecular target: T1, Mushroom tyrosinase (mTyr) (Agaricus bisporus, UniProt C7FF04)
# T1 construct: purchased Sigma-Aldrich
# Conditions: substrate L-DOPA; cited from earlier work
# T1 sequence (C7FF04 1-392): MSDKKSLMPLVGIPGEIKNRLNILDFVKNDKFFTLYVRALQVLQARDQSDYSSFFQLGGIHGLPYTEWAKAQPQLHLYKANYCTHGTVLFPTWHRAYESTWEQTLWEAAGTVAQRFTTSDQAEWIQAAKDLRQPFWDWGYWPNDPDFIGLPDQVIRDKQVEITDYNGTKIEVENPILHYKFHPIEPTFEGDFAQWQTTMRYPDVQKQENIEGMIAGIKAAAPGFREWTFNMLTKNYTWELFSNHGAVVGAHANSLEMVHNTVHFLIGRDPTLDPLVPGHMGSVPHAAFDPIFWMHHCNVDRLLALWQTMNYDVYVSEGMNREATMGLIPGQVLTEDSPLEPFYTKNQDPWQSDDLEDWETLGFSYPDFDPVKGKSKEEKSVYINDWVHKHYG
compound,measurement,value
"OC[C@H]1O[C@@H](Oc2ccc(O)cc2)[C@H](O)[C@@H](O)[C@@H]1O [beta-arbutin, reference compound]",inhibitory effect on the diphenolase activity of mTyr,no inhibitory effect
